Assays:
[1] = system: Unkräuter; assay: Post-emergence test, herbicidal action on weeds; format: in vivo; conditions: test plants 5 - 15 cm high sprayed, damage rated after three weeks vs untreated control, application rate not given
From the text: (§1) Lösungsmittel: 5 Gewichtsteile Aceton Emulgator: 1 Gewichtsteil Alkylarylpolyglykolether Zur Herstellung einer zweckmäßigen Wirkstoffzubereitung vermischt man 1 Gewichtsteil Wirkstoff mit der angegebenen Menge Lösungsmittel, gibt die angegebene Menge Emulgator zu und verdünnt das Konzentrat mit Wasser auf die gewünschte Konzentration.
(§2) Mit der Wirkstoffzubereitung spritzt man Testpflanzen, welche eine Höhe von 5 - 15 cm haben so, daß die jeweils gewünschten Wirkstoffmengen pro Flächeneinheit ausgebracht werden. Nach drei Wochen wird der Schädigungsgrad der Pflanzen bonitiert in % Schädigung im Vergleich zur Entwicklung der unbehandelten Kontrolle.

[2] = system: Kulturpflanzen, wie z.B. Weizen und Soja; conditions: in vivo
From the text: as §1, §2

## CCCN1C(=O)COc2cc(F)c(-n3c(=O)nc(OCC)n(C)c3=O)cc21 [Beispiel 2, 3-(7-Fluor-3-oxo-4-propyl-1,4-benzoxazin-6-yl)-6-ethoxy-1-methyl-(1H,3H)-1,3,5-triazin-2,4-dion]
[1]
  Wirkung gegen Unkräuter: starke Wirkung
[2]
  Verträglichkeit gegenüber Kulturpflanzen, wie z.B. Weizen und Soja: teilweise guter Verträglichkeit
